Assay results: patent US6747044B2, “Neurokinin antagonists” (Boehringer Ingelheim Pharma KG, priority 2000, dated 2004)

Target: T1, NK1 receptor (Cavia porcellus, UniProt P30547)
T1 construct: Guinea pigs (300-500 g) were anaesthetised with pentobarbital (50 mg/kg i.p.); from tissue; host or cells: whole anaesthetised guinea pig (in vivo)
Experiment: Inhibition of NK1-induced fall in blood pressure in anaesthetised guinea pigs (duration of activity)
Format: in vivo, guinea pig
Conditions: test substance intraduodenal, NK1-agonist 0.2 μmol/kg i.v. every 30 min for 6 to 8 hours
Procedure: Determining the Duration of Activity
Inhibition of NK1-induced Fall in Blood Pressure in Anaesthetised Guinea Pigs
Guinea pigs (300-500 g) were anaesthetised with pentobarbital (50 mg/kg i.p.) and prepared for duodenal administration of the test substances and for measurement of the arterial blood pressure. A temporary drop in blood pressure was induced by the intravenous administration of an NK1-agonist (0.2 μmol/kg at 30 minute intervals). After the basal value of the blood pressure had been determined the test substances were administered by intraduodenal route. Then the NK1-agonist was administered intravenously every 30 min for 6 to 8 hours. The results were expressed as a percentage inhibition in the NK1-induced fall in blood pressure and the ED50 values were calculated by regression analysis.

T1 sequence (P30547 whole entry): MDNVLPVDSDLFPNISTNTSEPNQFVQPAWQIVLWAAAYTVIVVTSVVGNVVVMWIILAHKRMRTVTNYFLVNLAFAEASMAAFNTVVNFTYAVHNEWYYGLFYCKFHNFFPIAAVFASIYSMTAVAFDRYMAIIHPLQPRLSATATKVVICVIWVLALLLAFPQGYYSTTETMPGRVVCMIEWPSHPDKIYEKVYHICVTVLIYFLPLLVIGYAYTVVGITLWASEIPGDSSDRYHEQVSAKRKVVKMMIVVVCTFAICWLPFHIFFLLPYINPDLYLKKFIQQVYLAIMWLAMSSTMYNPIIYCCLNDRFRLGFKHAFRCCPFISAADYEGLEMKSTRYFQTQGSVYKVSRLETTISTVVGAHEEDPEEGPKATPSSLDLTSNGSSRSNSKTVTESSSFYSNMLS

| Compound | Duration of activity [min] |
| --- | --- |
| CN(CCc1cc(C(F)(F)F)cc(C(F)(F)F)c1)C(=O)C(c1ccccc1)N1CCC(N(C)CCCO)CC1 (stereo not shown) [Example 1, N-[2-(3,5-Bis-trifluoromethyl-phenyl)-ethyl]-2-{4-[(3-hydroxy-propyl)-methyl-amino]-piperidine-1-yl}-N-methyl-2-phenyl-acetamide] | >360 |
| CN(CCc1cc(C(F)(F)F)cc(C(F)(F)F)c1)C(=O)C(c1ccccc1)N1CCC(NC(CO)CO)CC1 (stereo not shown) [Example 2, N-[2-(3,5-bis-trifluoromethyl-phenyl)-ethyl]-2-[4-(2-hydroxy-1-hydroxymethyl-ethylamino)-piperidin-1-yl]-N-methyl-2-phenylacetamide] | >360 |
| CN(CCc1cc(C(F)(F)F)cc(C(F)(F)F)c1)C(=O)C(c1ccccc1)N1CCC(N(C)CC2CC2)CC1 (stereo not shown) [Example 3, N-[2-(3,5-bis-trifluoromethyl-phenyl)-ethyl]-2-[4-(cyclopropylmethyl-methyl-amino)-piperidin-1-yl]-N-methyl-2-phenyl-acetamide] | >360 |
| CN(CCc1cc(C(F)(F)F)cc(C(F)(F)F)c1)C(=O)C(c1ccccc1)N1CCC(N(CCO)CCCO)CC1 (stereo not shown) [Example 4, N-[2-(3,5-bis-trifluoromethyl-phenyl)-ethyl]-2-{4-[(2-hydroxy-ethyl)-(3-hydroxy-propyl)-amino]-piperidin-1-yl}-N-methyl-2-phenyl-acetamide] | >360 |
| CN(CCc1cc(C(F)(F)F)cc(C(F)(F)F)c1)C(=O)[C@H](c1ccccc1)N1CCC(N(CCCO)CC2CC2)CC1 [Example 5, (S)—N-[2-(3.5-bis-trifluoromethyl-phenyl)-ethyl]-2-{4-[cyclopropylmethyl-(3-hydroxy-propyl)-amino]-piperidin-1-yl}-N-methyl-2-phenyl-acetamide] | >360 |
| CN(CCc1cc(C(F)(F)F)cc(C(F)(F)F)c1)C(=O)[C@H](c1ccccc1)N1CCC(N(C)CCO)CC1 [Example B-1, reference compound] | 120 |
| CN(CCc1cc(C(F)(F)F)cc(C(F)(F)F)c1)C(=O)[C@H](c1ccccc1)N1CCC(N(CCO)CCO)CC1 [Example B-4, reference compound] | 120 |
